These results are taken from patent US10383894B2, “Human medicinal treatment using salt of peroxymonosulfuric acid” (LuTran Industries, Inc., priority 2010, dated 2019).

Common to all, as to assay type: in vivo, human
Assay [1] concerns gouty arthritis. Kind of assay: Treatment of persons with gouty arthritis with the Medicine (Examples 9-11). Particulars: no dose given; for patient-reported outcome of previously tried treatments: Example 11: prior treatment. The text has this:
Given below are examples of using the medicinal drug of type I/II for treating allergic rhinitis, osteoarthritis, gouty arthritis, bronchitis, hemorrhoids, urticaria, toothache, tinea pedis, acute viral nasopharyngitis, herpes simplex, dandruff, itching, bromhidrosis, and vaginitis. The formulation of the drug of type I/II used in these examples was the preferred formulation, mentioned above, in which the drug was formed with potassium hydrogen peroxymonosulfate as the active oxygen-releasing material, sodium chloride as the inorganic halide, sodium hexametaphosphate as the alkali metal phosphate, sulfamic acid, malic acid as the non-reducing organic acid, and sodium dodecylbenzene sulfonate as the surfactant at approximately the typical mass percentages mentioned above. A formulation approximating this formulation is commercially available in the product Virkon. This formulation of the drug of type I/II is referred to below as the “Medicine”.
The Medicine for each person infected with allergic rhinitis, osteoarthritis, gouty arthritis, bronchitis, hemorrhoids, urticaria, toothache, tinea pedis, acute viral nasopharyngitis, herpes simplex, dandruff, itching, bromhidrosis, and vaginitis is provided for topical, intranasal, oral, or/and injection administration 1-12 times per day, preferably 1-8 times per day, more preferably 1-6 times per day, typically 1-4 times per day, in liquid form at a dosage of 0.00001-5%, preferably 0.001-3%, more preferably 0.1-2%, typically 0.5-1%, for a time of contact of 1 minute-12 hours, preferably 1 minute-6 hours, more preferably 1 minute-2 hours, typically 1-30 minutes . The treatment period in each in each of the following examples is normally 1-12 months, preferably 1-6 months, more preferably 1-3 months, typically 1-30 days.
A retired adult had gouty arthritis for 10 years. The […] reported that they were in excruciating pain on random days and that previously attempted treatments for the pain were unsuccessful. […]

The subject of assay [2] is acute viral nasopharyngitis. Kind of assay: Treatment of persons with acute viral nasopharyngitis with the Medicine (Examples 28-32). Conditions: Example 30: prior treatment, no dose given.
The subject of assay [3] is itching. The assay can be described thus: Treatment of persons with itching with the Medicine (Examples 41-43). Particulars: no dose given. The text has this: (§1) Given below are examples of using the medicinal drug of type I/II for treating allergic rhinitis, osteoarthritis, gouty arthritis, bronchitis, hemorrhoids, urticaria, toothache, tinea pedis, acute viral nasopharyngitis, herpes simplex, dandruff, itching, bromhidrosis, and vaginitis. The formulation of the drug of type I/II used in these examples was the preferred formulation, mentioned above, in which the drug was formed with potassium hydrogen peroxymonosulfate as the active oxygen-releasing material, sodium chloride as the inorganic halide, sodium hexametaphosphate as the alkali metal phosphate, sulfamic acid, malic acid as the non-reducing organic acid, and sodium dodecylbenzene sulfonate as the surfactant at approximately the typical mass percentages mentioned above. A formulation approximating this formulation is commercially available in the product Virkon. This formulation of the drug of type I/II is referred to below as the “Medicine”. […]

For assay [4], the system named is vaginitis. Kind of assay: Treatment of persons with vaginitis with the Medicine (Examples 48-50). Particulars: no dose given.
From the text: as §1

Assay [5] concerns dandruff. Kind of assay: Treatment of persons with dandruff with the Medicine (Examples 37-40). Particulars: Example 37: prior treatment, (some of) these decreased the amount of dandruff. An excerpt: Given below are examples of using the medicinal drug of type I/II for treating allergic rhinitis, osteoarthritis, gouty arthritis, bronchitis, hemorrhoids, urticaria, toothache, tinea pedis, acute viral nasopharyngitis, herpes simplex, dandruff, itching, bromhidrosis, and vaginitis. […] A formulation approximating this formulation is commercially available in the product Virkon. This formulation of the drug of type I/II is referred to below as the “Medicine”.
The Medicine was provided to […] as a 1% solution for topical administration by scrubbing the Medicine into their scalp and hair for 5 minutes and then washing their scalp and hair. The […] reported that they administered the Medicine to themself in the foregoing manner 4 times a week for 2 weeks.

The test system of assay [6] is bronchitis. Kind of assay: Treatment of persons with bronchitis with the Medicine (Examples 12-14). Particulars: Example 13: prior treatment, no dose given.
From the text: as §1

Assay [7] concerns osteoarthritis. The assay can be described thus: Treatment of persons with osteoarthritis with the Medicine (Examples 6-8). Particulars: Example 6: prior treatment, no dose given.
From the text: as §1

Turning to `CC(C)Cc1ccc(C(C)C(=O)O)cc1` (centres unmarked) [ibuprofen], in assay [1] (Example 10: prior treatment), the “patient-reported outcome of previously tried treatment for gouty arthritis” value is “no significant success”. In assay [1], the “patient-reported outcome of previously tried treatments” value is reported as “without significant success”.
`COc1cc2c(c(OC)c1OC)-c1ccc(OC)c(=O)cc1[C@@H](NC(C)=O)CC2` [colchicines, colchicine]: the “patient-reported outcome of previously tried treatments” value in assay [1] is “without significant success”.
In the case of `CN[C@@H](C)[C@@H](O)c1ccccc1` [pseudoephedrine], in assay [2], the “patient-reported outcome of previously tried treatments for acute viral nasopharyngitis” value is “little success”.
For `CC(=O)Nc1ccc(O)cc1` [paracetamol], in assay [2], the “patient-reported outcome of previously tried treatments for acute viral nasopharyngitis” value is reported as “little success”.
Consider `C[C@]12CCC(=O)C=C1CC[C@@H]1[C@@H]2[C@@H](O)C[C@@]2(C)[C@H]1CC[C@]2(O)C(=O)CO` [hydrocortisone], for which the “patient-reported outcome of previously tried treatments for itching” value is “without success” in assay [3] (Example 42: prior treatment) and “little success” in assay [3] (Example 43: prior treatment). Besides, the “patient-reported outcome of previously tried treatments for vaginitis” value in assay [4] (Example 48: prior treatment) is given as “without significant success”; in assay [4] (Example 50: prior treatment), “to no avail”.
For the compound `CC(=O)N1CCN(c2ccc(OCC3COC(Cn4ccnc4)(c4ccc(Cl)cc4Cl)O3)cc2)CC1` (centres unmarked) [ketoconazole], the “patient-reported outcome of previously tried treatments for dandruff” value (from here on “patient-reported outcome … for dandruff”) in assay [5] was “dandruff was still visible on their scalp”.
In the case of `COc1ccc2c3c1O[C@H]1[C@@H](O)C=C[C@H]4[C@@H](C2)N(C)CC[C@@]341` [codeine], in assay [6], the “patient-reported outcome of previously tried treatments for bronchitis” value is on record as “little success”.
In the case of `N[C@H]1C(O)O[C@H](CO)[C@@H](O)[C@@H]1O` (some centres unmarked) [glucosamine], the “patient-reported outcome of previously tried treatments for osteoarthritis” value in assay [7] was “without effective relief”.
Turning to `S=[Se]=S` [selenium sulfide], the “patient-reported outcome … for dandruff” value in assay [5] is recorded as “dandruff was still visible on their scalp”.
For the compound zinc pyrithione, the “patient-reported outcome … for dandruff” value in assay [5] was “dandruff was still visible on their scalp”.
